# From US20060069038A1, “Irreversible caspase-3 inhibitors as active site probes” (priority 2003, published 2006)
# Test system: active caspases
# Assay: [125I]-M808 labeling of active caspases in rat tissue protein extracts
# Format: binding
# Description: Tissues (rat liver, kidney, brain, thymus, mouse thymus) were either frozen or processed within 20 minutes of their removal. Rat tissues and cultured cells were homogenized in ice cold cell lysis buffer (50 mM Tris-Cl pH 7.5, 2 mM EDTA, 1% NP-40) supplemented with 5 mM DTT and Complete protease inhibitor cocktail (Roche). Thymi from mice injected with [^125I]-M808 were homogenized in lysis buffer supplemented with 25 μM of M808. Nuclear debris was removed by centrifugation at 13000 rpm for 10 min and the soluble fraction quantitated by Bradford assay (Bio-Rad). Caspase-3 like activity was determined with the fluorogenic substrate Ac-DEVD-AMC as described by Roy et al. (2001) Proc. Nat. Acad. Sci. USA 98: 6132-6137.
# The determination of caspase activity by [^125I]-M808 labeling was performed by pre-incubating purified recombinant human caspase-3 with indicated amounts of caspase inhibitor (M791) or vehicle (DMSO), for 1 hour at 25° C. in ICE buffer III (50 mM Hepes-KOH pH 7.0, 0.1% CHAPS, 10% sucrose, 2 mM EDTA), supplemented with 5 mM DTT. [^125I]-M808 was added to a final concentration of 1.25 μM and incubated for 5 min at 25° C. Active caspases in tissue or cell extracts were labeled by incubating 60-80 μg of lysate with [^125I]-M808 for 15 minutes at 25° C. […]
SMILES,"effect on [125I]-M808 labeling when added to extract prior to probe (granzyme-B treated rat tissue extracts, FIG. 2A lanes 6-9)","recognition of active caspases in injured tissue extracts (HI neonatal rat brain, infarcted rat heart, septic rat thymi extracts)"
"COc1ccc(-c2nc(C)no2)cc1CC(=O)N[C@H](C(=O)N[C@@H](CC(=O)O)C(=O)CSCc1ccccc1)C(C)C [Example M791, (3S)-5-(benzylthio)-3-[(N-{[2-methoxy-5-(3-methyl-1,2,4-oxadiazol-5-yl)phenyl]acetyl}-L-valyl)amino]4-oxopentanoic acid]",No radiolabeling (lanes 6-8) or strongly reduced labeling (lane 9),–
"COc1ccc(I)cc1CC(=O)N[C@H](C(=O)NC(CC(=O)O)C(=O)CF)C(C)C (stereo partly drawn) [[^125I]-M808, 5-fluoro-3-({N-[(5-iodo-2-methoxyphenyl)acetyl]-L-valyl}amino)-4-oxopentanoic acid]",–,specifically recognizes active caspases in several types of injured tissues
